Experimental data reported in the COVID Moonshot data (paper PMC7615835).
Several values for one entry are separate records, joined by “and”; a condition that tells them apart may be missing. Identical values can stand only once.

Biological target: SARS-CoV-2 Main Protease (SARS-CoV-2) (UniProt P0DTD1)

Question: For `CNC(=O)CN1CC(C(=O)Nc2cncc3c2CCCC3)c2cc(Cl)ccc2C1=O` (configuration not stated), which IC50 is on record?
Answer: 0.448 µM

Question: How did the IC50 turn out when `C=CC(=O)N(Cc1ccccc1Cl)C(C(=O)NC(C)(C)C)c1cncc2ccccc12` (configuration not stated) was run?
Answer: > 99.5 µM

Question: With `CCn1c2ccccc2c2cc(Nc3cc(Cl)cc(CC(=O)Nc4cncc5ccccc45)c3)ccc21` as the compound, how does the IC50 read?
Answer: 2.73 µM

Question: How did the IC50 turn out when `CCS(=O)(=O)c1c(Cl)cccc1CNC(c1cccc(F)c1)C1CC1` (configuration not stated) was run?
Answer: > 99.5 µM

Question: Which IC50 does the source give for `N#Cc1cccc(NC(=O)[C@@H]2CN(C(=O)CCl)CCN2S(=O)(=O)c2ccsc2)c1` (stereo in doubt) here?
Answer: 0.416 µM

Question: Which IC50 does the source give for `Cc1ccc(S(=O)(=O)N2CCN(C(=O)CCl)C[C@H]2C(=O)NCc2ccccc2)cc1` (stereo in doubt) here?
Answer: 3.65 µM

Question: With `O=C(Cc1cc(Cl)cc(NCc2ccc([N+](=O)[O-])cc2)c1)Nc1cncc2ccccc12` as the compound, how does the IC50 read?
Answer: 1.82 µM

Question: `CN(Cc1nnc2ccccn12)C(=O)c1ccnc2ccccc12` was tested. Which IC50 did it give?
Answer: > 99.5 µM

Question: With `CS(=O)(=O)Nc1ccc2cncc(NC(=O)C3CCS(=O)(=O)c4ccc(Cl)cc43)c2c1` (configuration not stated) as the compound, how does the IC50 read?
Answer: 0.204 µM

Question: `O=C(CCl)N1CCN(Cc2cccs2)CC1` was tested. Which IC50 did it give?
Answer: 5.66 µM and 6.77 µM

Question: Which IC50 does the source give for `O=C1NC[C@@H](C(=O)Nc2cncc3ccccc23)c2cc(Cl)ccc21` (stereo in doubt) here?
Answer: 99.3 µM

Question: For `O=C(Cc1cc(Cl)cc(N2CCN(c3ccc(O)cc3)CC2)c1)Nc1cncc2ccccc12`, which IC50 is on record?
Answer: 2.19 µM

Question: How did the IC50 turn out when `Cc1cc2c(cc1S(=O)(=O)N1CCN(c3ccccc3)CC1)OCO2` was run?
Answer: > 99.5 µM

Question: How did the IC50 turn out when `O=C(Cc1cc(Cl)cc(Nc2ccc(C(F)(F)F)cc2)c1)Nc1cncc2ccccc12` was run?
Answer: 2.06 µM

Question: How did the IC50 turn out when `O=C(Cc1cc(Cl)cc(Nc2cc(Cl)cc(Cl)c2O)c1)Nc1cncc2ccccc12` was run?
Answer: 9.19 µM

Question: For `O=C1NC2(COc3ccc(Cl)cc32)C(=O)N1c1cncc2ccc(F)cc12` (configuration not stated), which IC50 is on record?
Answer: 1.38 µM

Question: Which IC50 does the source give for `COc1cc2cncc(NC(=O)Cc3cccc(Cl)c3)c2cc1OC` here?
Answer: > 99.5 µM

Question: How did the IC50 turn out when `O=C(Nc1cccnc1)[C@@H](c1ccccc1)N1Cc2ccccc2C1=O` (stereo in doubt) was run?
Answer: > 99.5 µM

Question: How did the IC50 turn out when `O=C(Cc1cccc(Cl)c1)NC1=NC(=O)c2ccccc21` was run?
Answer: > 99.5 µM

Question: With `O=C(N/N=c1\cc[nH]c2ccccc12)c1ccc2ncccc2c1` as the compound, how does the IC50 read?
Answer: > 99.5 µM

Question: How did the IC50 turn out when `COCCN(C)S(=O)(=O)N1Cc2ccc(Cl)cc2C2(CCN(c3cncc4ccccc34)C2=O)C1` (configuration not stated) was run?
Answer: 0.993 µM

Question: For `CN(C(=O)c1ccccc1N)c1cc(Cl)cc(CC(=O)Nc2cncc3ccccc23)c1`, which IC50 is on record?
Answer: 1.94 µM

Question: How did the IC50 turn out when `COC1(CS(=O)(=O)N2Cc3ccc(Cl)cc3C3(CCN(c4cncc5ccc(OCCN(C)C)cc45)C3=O)C2)CC1` (configuration not stated) was run?
Answer: 0.181 µM

Question: How did the IC50 turn out when `CC(C)(C)c1ccc(N(C(=O)c2cnc(C3CCOC3)s2)C(C(=O)NCCc2cccc(F)c2)c2cccnc2)cc1` (configuration not stated) was run?
Answer: > 99.5 µM

Question: With `Cc1ccc(S(=O)(=O)N2CCN(C(=O)CCl)C[C@H]2C(=O)NC2CCCCC2)cc1` (stereo in doubt) as the compound, how does the IC50 read?
Answer: 4.48 µM

Question: With `CC(C)(C)c1ccc(N(C(=O)c2ncc[nH]2)C(C(=O)NCCc2cccc(F)c2)c2cccnc2)cc1` (configuration not stated) as the compound, how does the IC50 read?
Answer: 5.29 µM

Question: With `O=C(Cc1cc(Cl)cc(NCc2ccc(I)cc2)c1)Nc1cncc2ccccc12` as the compound, how does the IC50 read?
Answer: 4.37 µM

Question: With `CCOc1ccccc1CNc1cc(Cl)cc(CC(=O)Nc2cncc3ccccc23)c1` as the compound, how does the IC50 read?
Answer: 2.07 µM

Question: Which IC50 does the source give for `O=C(NCCc1cccc(F)c1)C(c1cccnc1)N(C(=O)c1cocn1)C1CCN(c2ccccc2)C1` (configuration not stated) here?
Answer: > 99.5 µM

Question: `O=C(Cc1cccnc1)Nc1cccc(OC2CC(=O)N2)c1` (configuration not stated) was tested. Which IC50 did it give?
Answer: 82.6 µM and 94.4 µM

Question: Which IC50 does the source give for `COC(=O)c1c(C)nn(C(=O)c2cccs2)c1-c1snnc1C` here?
Answer: 5.72 µM

Question: For `CCOc1ccc(CNc2cc(Cl)cc(CC(=O)Nc3cncc4ccccc34)c2)cc1`, which IC50 is on record?
Answer: 3.41 µM

Question: How did the IC50 turn out when `O=C(Cc1cc(Cl)cc(Nc2ccc(F)c(Br)c2)c1)Nc1cncc2ccccc12` was run?
Answer: 1.97 µM

Question: `C[C@H](C/C=C/C(C)(C)O)[C@H]1CC[C@@]2(C)[C@@H]3C=C[C@]45OC(O)[C@@]3(CC[C@]12C)[C@@H]4CC[C@H](O[C@@H]1O[C@H](CO)[C@@H](O)[C@H](O)[C@H]1O)C5(C)C` (stereo in doubt) was tested. Which IC50 did it give?
Answer: > 99.5 µM

Question: `O=C(Cc1cc(Cl)cc(Nc2ccc3ccccc3c2O)c1)Nc1cncc2ccccc12` was tested. Which IC50 did it give?
Answer: 4.1 µM

Question: How did the IC50 turn out when `CCOC(=O)c1c(COc2cc(Cl)cc(CC(=O)Nc3cnccc3C)c2)oc2ccccc12` was run?
Answer: > 99.5 µM

Question: With `Cn1cncc1C(=O)N1Cc2ccc(Cl)cc2C(C(=O)Nc2cncc3ccccc23)C1` (configuration not stated) as the compound, how does the IC50 read?
Answer: 0.224 µM

Question: How did the IC50 turn out when `O=C(Cc1cc(Cl)cc(Cc2ccn[nH]2)c1)Nc1cncc2ccccc12` was run?
Answer: 5.04 µM

Question: `CS(=O)(=O)c1ccc(O)c(Nc2cc(Cl)cc(CC(=O)Nc3cncc4ccccc34)c2)c1` was tested. Which IC50 did it give?
Answer: 7.61 µM

Question: Which IC50 does the source give for `O=S(=O)(Nc1ccccc1SCc1cccc(Cl)c1F)c1cc(Cl)sc1Cl` here?
Answer: 2.23 µM

Question: With `C=CC(=O)N(Cc1cccc(Cl)c1)C(C(=O)NCCc1cccc(F)c1)c1cnccc1C` (configuration not stated) as the compound, how does the IC50 read?
Answer: > 99.5 µM

Question: How did the IC50 turn out when `CC(C)(C)c1ccc(N(C(=O)c2ccn[nH]2)C(C(=O)NCCc2cccc(F)c2)c2cccnc2)cc1` (configuration not stated) was run?
Answer: 1.78 µM

Question: How did the IC50 turn out when `CCOC(=O)c1ccc(NC(=O)CC2SC(=O)N(c3ccccc3)C2=O)cc1` (configuration not stated) was run?
Answer: 2.4 µM

Question: Which IC50 does the source give for `CN(C)C(=O)CNC(=O)C(c1cccnc1)N(C(=O)c1cocn1)c1ccc(C(C)(C)C)cc1` (configuration not stated) here?
Answer: 29.2 µM

Question: Which IC50 does the source give for `CC1(CS(=O)(=O)N2Cc3ccc(Cl)cc3C(C(=O)Nc3cncc4cccc(Cl)c34)C2)CS(=O)(=O)C1` (configuration not stated) here?
Answer: 0.957 µM

Question: `Cc1cnoc1C(=O)N(c1ccc(C(C)(C)C)cc1)C(C(=O)NCCc1cccc(F)c1)c1cccnc1` (configuration not stated) was tested. Which IC50 did it give?
Answer: > 99.5 µM

Question: For `N#Cc1ccc(C(=O)N2C[C@@H](F)C[C@H]2CNC(=O)C2CCCC2O)[nH]1` (stereo in doubt), which IC50 is on record?
Answer: > 99.5 µM
